Measurements from PubChem BioAssay (NCI).
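Test compounds were applied to cells in 96-well plates for 48 hours at 5 doses. TGI: concentration producing complete growth inhibition.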

How the values were obtained:
Assay in all cases: NCI tumour cell line growth inhibition, 48 h
786-0 renal = tested on: 786-0 renal
A498 renal = tested on: A498 renal
A549 NSCLC = tested on: A549 NSCLC
ACHN renal = tested on: ACHN renal
BT-549 breast = tested on: BT-549 breast
CAKI-1 renal = tested on: CAKI-1 renal
CCRF-CEM leukemia = tested on: CCRF-CEM leukemia
COLO 205 colon = tested on: COLO 205 colon
DU-145 prostate = tested on: DU-145 prostate
EKVX NSCLC = tested on: EKVX NSCLC
HCC-2998 colon = tested on: HCC-2998 colon
HCT-116 colon = tested on: HCT-116 colon
HL-60(TB) leukemia = tested on: HL-60(TB) leukemia
HOP-92 NSCLC = tested on: HOP-92 NSCLC
HS 578T breast = tested on: HS 578T breast
HT29 colon = tested on: HT29 colon
IGROV1 ovarian = tested on: IGROV1 ovarian
K-562 leukemia = tested on: K-562 leukemia
KM12 colon = tested on: KM12 colon
LOX IMVI melanoma = tested on: LOX IMVI melanoma
M14 melanoma = tested on: M14 melanoma
MALME-3M melanoma = tested on: MALME-3M melanoma
MCF7 breast = tested on: MCF7 breast
MDA-MB-231 breast = tested on: MDA-MB-231 breast
MDA-MB-435 = tested on: MDA-MB-435
MDA-N = tested on: MDA-N
MOLT-4 leukemia = tested on: MOLT-4 leukemia
NCI-H226 lung = tested on: NCI-H226 lung
NCI-H23 lung = tested on: NCI-H23 lung
NCI-H460 lung = tested on: NCI-H460 lung
NCI-H522 lung = tested on: NCI-H522 lung
NCI/ADR-RES ovarian = tested on: NCI/ADR-RES ovarian
OVCAR-3 ovarian = tested on: OVCAR-3 ovarian
OVCAR-4 ovarian = tested on: OVCAR-4 ovarian
OVCAR-8 ovarian = tested on: OVCAR-8 ovarian
PC-3 prostate = tested on: PC-3 prostate
RPMI-8226 leukemia = tested on: RPMI-8226 leukemia
SF-268 CNS = tested on: SF-268 CNS
SF-295 CNS = tested on: SF-295 CNS
SF-539 CNS = tested on: SF-539 CNS
SK-MEL-2 melanoma = tested on: SK-MEL-2 melanoma
SK-MEL-28 melanoma = tested on: SK-MEL-28 melanoma
SK-MEL-5 melanoma = tested on: SK-MEL-5 melanoma
SK-OV-3 ovarian = tested on: SK-OV-3 ovarian
SN12C renal = tested on: SN12C renal
SNB-19 CNS = tested on: SNB-19 CNS
SR leukemia = tested on: SR leukemia
SW-620 colon = tested on: SW-620 colon
T-47D breast = tested on: T-47D breast
TK-10 renal = tested on: TK-10 renal
U251 CNS = tested on: U251 CNS
UACC-257 melanoma = tested on: UACC-257 melanoma
UACC-62 melanoma = tested on: UACC-62 melanoma
UO-31 renal = tested on: UO-31 renal
HCT-15 colon = tested on: HCT-15 colon
HOP-62 NSCLC = tested on: HOP-62 NSCLC
OVCAR-5 ovarian = tested on: OVCAR-5 ovarian
SNB-75 CNS = tested on: SNB-75 CNS

SMILES: O=C(CC(=O)Nc1ccc(C(=O)O)cc1)Nc1ccc(C(=O)O)cc1
- TGI (786-0 renal): > 100 µM
- TGI (A498 renal): > 100 µM
- TGI (A549 NSCLC): > 100 µM
- TGI (ACHN renal): > 100 µM
- TGI (BT-549 breast): > 100 µM
- TGI (CAKI-1 renal): > 100 µM
- TGI (CCRF-CEM leukemia): > 100 µM
- TGI (COLO 205 colon): > 100 µM
- TGI (DU-145 prostate): > 100 µM
- TGI (EKVX NSCLC): > 100 µM
- TGI (HCC-2998 colon): > 100 µM
- TGI (HCT-116 colon): > 100 µM
- TGI (HL-60(TB) leukemia): > 100 µM
- TGI (HOP-92 NSCLC): > 100 µM
- TGI (HS 578T breast): > 100 µM
- TGI (HT29 colon): > 100 µM
- TGI (IGROV1 ovarian): > 100 µM
- TGI (K-562 leukemia): > 100 µM
- TGI (KM12 colon): > 100 µM
- TGI (LOX IMVI melanoma): > 100 µM
- TGI (M14 melanoma): > 100 µM
- TGI (MALME-3M melanoma): > 100 µM
- TGI (MCF7 breast): > 100 µM
- TGI (MDA-MB-231 breast): > 100 µM
- TGI (MDA-MB-435): > 100 µM
- TGI (MDA-N): > 100 µM
- TGI (MOLT-4 leukemia): > 100 µM
- TGI (NCI-H226 lung): > 100 µM
- TGI (NCI-H23 lung): > 100 µM
- TGI (NCI-H460 lung): > 100 µM
- TGI (NCI-H522 lung): > 100 µM
- TGI (NCI/ADR-RES ovarian): > 100 µM
- TGI (OVCAR-3 ovarian): > 100 µM
- TGI (OVCAR-4 ovarian): > 100 µM
- TGI (OVCAR-8 ovarian): > 100 µM
- TGI (PC-3 prostate): > 100 µM
- TGI (RPMI-8226 leukemia): > 100 µM
- TGI (SF-268 CNS): > 100 µM
- TGI (SF-295 CNS): > 100 µM
- TGI (SF-539 CNS): > 100 µM
- TGI (SK-MEL-2 melanoma): 40 µM
- TGI (SK-MEL-28 melanoma): > 100 µM
- TGI (SK-MEL-5 melanoma): > 100 µM
- TGI (SK-OV-3 ovarian): > 100 µM
- TGI (SN12C renal): > 100 µM
- TGI (SNB-19 CNS): > 100 µM
- TGI (SR leukemia): > 100 µM
- TGI (SW-620 colon): > 100 µM
- TGI (T-47D breast): > 100 µM
- TGI (TK-10 renal): > 100 µM
- TGI (U251 CNS): > 100 µM
- TGI (UACC-257 melanoma): > 100 µM
- TGI (UACC-62 melanoma): > 100 µM
- TGI (UO-31 renal): > 100 µM

SMILES: COc1ccc(-n2sc3ncc(C)cc3c2=O)cc1
- TGI (786-0 renal): 31 µM
- TGI (A549 NSCLC): 44.7 µM
- TGI (ACHN renal): 32.3 µM
- TGI (BT-549 breast): 35.6 µM
- TGI (CCRF-CEM leukemia): 37.5 µM
- TGI (COLO 205 colon): 29.5 µM
- TGI (DU-145 prostate): 44 µM
- TGI (EKVX NSCLC): 33.6 µM
- TGI (HCC-2998 colon): > 100 µM
- TGI (HCT-116 colon): 34.5 µM
- TGI (HCT-15 colon): 38.7 µM
- TGI (HOP-62 NSCLC): 45.9 µM
- TGI (HOP-92 NSCLC): 42.1 µM
- TGI (HS 578T breast): 83.7 µM
- TGI (HT29 colon): 31.9 µM
- TGI (IGROV1 ovarian): > 100 µM
- TGI (K-562 leukemia): > 100 µM
- TGI (KM12 colon): 29.6 µM
- TGI (M14 melanoma): 32.7 µM
- TGI (MALME-3M melanoma): 38.5 µM
- TGI (MCF7 breast): 44.2 µM
- TGI (MDA-MB-231 breast): 30.7 µM
- TGI (MDA-MB-435): 40.5 µM
- TGI (MDA-N): 31.8 µM
- TGI (MOLT-4 leukemia): > 100 µM
- TGI (NCI-H226 lung): 84.6 µM
- TGI (NCI-H23 lung): 57.7 µM
- TGI (NCI-H460 lung): > 100 µM
- TGI (NCI-H522 lung): 45.8 µM
- TGI (NCI/ADR-RES ovarian): 64.4 µM
- TGI (OVCAR-3 ovarian): 32.4 µM
- TGI (OVCAR-4 ovarian): > 100 µM
- TGI (OVCAR-5 ovarian): 34.7 µM
- TGI (OVCAR-8 ovarian): 35.2 µM
- TGI (PC-3 prostate): 29 µM
- TGI (RPMI-8226 leukemia): 67.2 µM
- TGI (SF-268 CNS): 40.6 µM
- TGI (SF-295 CNS): > 100 µM
- TGI (SK-MEL-2 melanoma): 52.7 µM
- TGI (SK-MEL-28 melanoma): 73 µM
- TGI (SK-MEL-5 melanoma): 26 µM
- TGI (SK-OV-3 ovarian): > 100 µM
- TGI (SN12C renal): 35.4 µM
- TGI (SNB-19 CNS): > 100 µM
- TGI (SR leukemia): > 100 µM
- TGI (SW-620 colon): 89.6 µM
- TGI (T-47D breast): 39.4 µM
- TGI (TK-10 renal): 33.2 µM
- TGI (U251 CNS): 52.6 µM
- TGI (UACC-62 melanoma): 34.9 µM
- TGI (UO-31 renal): 31.4 µM

SMILES: CCOC(=O)C(CS)NC(=O)CCCCCCCC(=O)O (stereo unspecified)
- TGI (786-0 renal): > 100 µM
- TGI (A498 renal): > 100 µM
- TGI (A549 NSCLC): > 100 µM
- TGI (ACHN renal): > 100 µM
- TGI (BT-549 breast): > 100 µM
- TGI (CAKI-1 renal): > 100 µM
- TGI (CCRF-CEM leukemia): > 100 µM
- TGI (COLO 205 colon): > 100 µM
- TGI (DU-145 prostate): > 100 µM
- TGI (EKVX NSCLC): > 100 µM
- TGI (HCC-2998 colon): > 100 µM
- TGI (HCT-116 colon): > 100 µM
- TGI (HCT-15 colon): > 100 µM
- TGI (HL-60(TB) leukemia): > 100 µM
- TGI (HOP-62 NSCLC): > 100 µM
- TGI (HOP-92 NSCLC): > 100 µM
- TGI (HS 578T breast): > 100 µM
- TGI (HT29 colon): > 100 µM
- TGI (IGROV1 ovarian): > 100 µM
- TGI (K-562 leukemia): > 100 µM
- TGI (KM12 colon): > 100 µM
- TGI (LOX IMVI melanoma): > 100 µM
- TGI (M14 melanoma): > 100 µM
- TGI (MALME-3M melanoma): > 100 µM
- TGI (MCF7 breast): > 100 µM
- TGI (MDA-MB-231 breast): > 100 µM
- TGI (MDA-MB-435): > 100 µM
- TGI (MDA-N): > 100 µM
- TGI (MOLT-4 leukemia): > 100 µM
- TGI (NCI-H226 lung): > 100 µM
- TGI (NCI-H23 lung): > 100 µM
- TGI (NCI-H460 lung): > 100 µM
- TGI (NCI-H522 lung): > 100 µM
- TGI (NCI/ADR-RES ovarian): > 100 µM
- TGI (OVCAR-3 ovarian): > 100 µM
- TGI (OVCAR-4 ovarian): > 100 µM
- TGI (OVCAR-5 ovarian): > 100 µM
- TGI (OVCAR-8 ovarian): > 100 µM
- TGI (PC-3 prostate): > 100 µM
- TGI (RPMI-8226 leukemia): > 100 µM
- TGI (SF-295 CNS): > 100 µM
- TGI (SK-MEL-2 melanoma): > 100 µM
- TGI (SK-MEL-28 melanoma): > 100 µM
- TGI (SK-MEL-5 melanoma): > 100 µM
- TGI (SK-OV-3 ovarian): > 100 µM
- TGI (SN12C renal): > 100 µM
- TGI (SNB-19 CNS): > 100 µM
- TGI (SNB-75 CNS): > 100 µM
- TGI (SR leukemia): > 100 µM
- TGI (SW-620 colon): > 100 µM
- TGI (T-47D breast): > 100 µM
- TGI (TK-10 renal): > 100 µM
- TGI (U251 CNS): > 100 µM
- TGI (UACC-257 melanoma): > 100 µM
- TGI (UACC-62 melanoma): > 100 µM
- TGI (UO-31 renal): > 100 µM
